Results: US6514747B2 (UT-Battelle, LLC, priority 1993, dated 2003)

How the values were obtained:
[1] = system: aP212 and aP273 transgenic mice; experiment: daily insulin injections in aP2-agouti transgenic mice; type: in vivo, mouse
Method: All mice were maintained at Oak Ridge National Laboratory. The FVB/N mice were obtained from random-bred stock. All mice were fed a diet containing 11% fat by weight (Mouse Diet 5015; Purina), weaned at 4 wk of age, and subsequently weighed monthly. Food and water were obtained from ad libitum. All data are from mice that are hemizygous for the transgene.
Plasma and serum were obtained by retro-orbital sinus puncture from nonfasted mice between 9 am and 11 am. Plasma insulin levels were measured by radioimmunoassay (ICN) with porcine insulin as a standard. Blood glucose concentrations were determined by blood sampling from the tail vein followed by quantification via One-Touch™ glucose determination system (Johnson & Johnson).
Six- to ten-wk-old male mice were subcutaneously injected between 11 am and noon with Humulin U ultralente (Eli Lilly, Indianapolis, Ind.) at a daily dose of 0.5, 1, or 2 units/day per mouse. Insulin (100 units/ml) was diluted before injection with phosphate-buffered saline so that all mice received a 200-μl injection. A 1-ml syringe was filled with […] of the diluted insulin solution. To keep the insulin suspension as uniform as possible, it was mixed between each injection via plunger action.

untransfected 293 cells = experiment: adenylyl cyclase assay in untransfected 293 cells; type: cell-based, human; details: untransfected 293 cells
Method: 293 cells (5×10^5) and 293 cells expressing human TSH-R were preloaded with 5 μCi ^3H-adenine for 1.5 h at 37° C. in a 5% CO2 incubator.
Medium was aspirated and 2.5% perchloric acid containing 0.1 mM cAMP was used to stop the incubation. Adenylyl cyclase activity was calculated by determining the percent conversion of ^3H-adenine to ^3H-cAMP as described (Salomon, 1991; Johnson and Salomon, 1991). Correlation of cAMP accumulation measured in this assay with actual adenylyl cyclase activity is made under the assumption that isobutymethylxanthine effectively blocks cAMP degradation. Data represent means and standard deviations from triplicate data points.

L6 skeletal myocytes = experiment: [Ca2+]i in L6 skeletal myocytes (fura 2); type: cell-based
3T3-L1 adipocytes = experiment: lipogenesis in 3T3-L1 adipocytes (FAS and SCD mRNA, FAS activity, triglyceride content); type: cell-based; details: nitrendipine alone
[2] = system: isolated human adipocytes; experiment: [Ca2+]i in isolated human adipocytes; type: cell-based
[3] = molecular target: T1, human melanocortin 3 receptor (hMC3R) (Homo sapiens, UniProt P41968); experiment: [Ca2+]i in HEK-293 cells transfected with hMC3R; type: cell-based; details: 20 nM agouti, n = 8
T1 construct: The coding region of the human melanocortin 1, 3, and 5 receptor (hMC1R, hMC3R, and hMC5R) genes was amplified; expressed in transfected cells; host or cells: HEK-293 cells, cotransfected with pMT4 construct and pRSV-Neo, geneticin-selected clones
Method: [Ca^2+]i was measured in L6, A7r5, and HEK-293 cells (Zemel et al., 1995) as previously described and in 3T3-L1 cells as described by Klip and Ramlal (1987). Monolayers of nonfused L6 cells and confluent A7r5 cells after 14-16 h of starvation in a serum-free culture medium were rinsed with Hanks' balanced salt solution (HBSS), detached by incubation in 2 ml trypsin (0.05%) for 2-3 min at 37° C., and released by pipetting without trypsinization. Cells were harvested by centrifugation at 50 g and resuspended in 1 ml HBSS at a density of ˜10^6 cells/ml. For 3T3-L1 cells, monolayers of differentiated adipocytes were rinsed with serum-free DMEM and exposed to 0.05% trypsin for 3 min. The solution was decanted, and the cells were incubated for 3 min in culture medium. Cells were detached by pipetting and collected by centrifugation at 50 g. Cells were then incubated in culture medium to recover for 1 h followed by incubation in serum-free DMEM for 4 h at 37° C. in an atmosphere of 5% CO2, collected by centrifugation, and resuspended in HBSS at a density of ˜10^6 cells/ml. […] [Ca^2+]i levels were then measured fluorometrically in suspensions using dual excitation (340 and 380 nm)-single emission (510 nm) fluorometry as previously described (Zemel et al., 1995). [Ca^2+]i was then calculated by the computer in the fluorometer with the equation of Grynkiewicz et al. (1985). […]

[4] = molecular target: T2, human melanocortin 1 receptor (hMC1R) (Homo sapiens, UniProt Q01726); experiment: [Ca2+]i in HEK-293 cells transfected with hMC1R; type: cell-based; details: 20 nM agouti, n = 8
T2 construct: The coding region of the human melanocortin 1, 3, and 5 receptor (hMC1R, hMC3R, and hMC5R) genes was amplified; expressed in transfected cells; host or cells: HEK-293 cells, cotransfected with pMT4 construct and pRSV-Neo, geneticin-selected clones
Method: The coding region of the human melanocortin 1, 3, and 5 receptor (hMC1R, hMC3R, and hMC5R) genes was amplified by polymerase chain reaction and subcloned into the vector pMT4, and the sequence was verified. HEK-293 cells, which appear to lack endogenous melanocortin receptors (Lu et al., 1994), were cotransfected with pMT4 and pRSV-Neo by either calcium phosphate coprecipitation method or the use of Transfectam reagent (Promega). Clones were selected using 600 μg geneticin/ml. culture medium.
[Ca^2+]i was measured in L6, A7r5, and HEK-293 cells (Zemel et al., 1995) as previously described and in 3T3-L1 cells as described by Klip and Ramlal (1987). Monolayers of nonfused L6 cells and confluent A7r5 cells after 14-16 h of starvation in a serum-free culture medium were rinsed with Hanks' balanced salt solution (HBSS), detached by incubation in 2 ml trypsin (0.05%) for 2-3 min at 37° C., and released by pipetting without trypsinization. Cells were harvested by centrifugation at 50 g and resuspended in 1 ml HBSS at a density of ˜10^6 cells/ml. For 3T3-L1 cells, monolayers of differentiated adipocytes were rinsed with serum-free DMEM and exposed to 0.05% trypsin for 3 min. The solution was decanted, and the cells were incubated for 3 min in culture medium. Cells were detached by pipetting and collected by centrifugation at 50 g. Cells were then incubated in culture medium to recover for 1 h followed by incubation in serum-free DMEM for 4 h at 37° C. in an atmosphere of 5% CO2, collected by centrifugation, and resuspended in HBSS at a density of ˜10^6 cells/ml. Cell suspensions were chilled on ice for 5 min and loaded with […] (final concn) fura 2 acetoxymethyl ester (AM; Sigma) in the dark for 20 min at 37° C. For 3T3-L1 adipocytes, the chilling step was skipped. […] [Ca^2+]i levels were then measured fluorometrically in suspensions using dual excitation (340 and 380 nm)-single emission (510 nm) fluorometry as previously described (Zemel et al., 1995). [Ca^2+]i was then calculated by the computer in the fluorometer with the equation of Grynkiewicz et al. (1985). […]

T2 sequence (Q01726 whole entry): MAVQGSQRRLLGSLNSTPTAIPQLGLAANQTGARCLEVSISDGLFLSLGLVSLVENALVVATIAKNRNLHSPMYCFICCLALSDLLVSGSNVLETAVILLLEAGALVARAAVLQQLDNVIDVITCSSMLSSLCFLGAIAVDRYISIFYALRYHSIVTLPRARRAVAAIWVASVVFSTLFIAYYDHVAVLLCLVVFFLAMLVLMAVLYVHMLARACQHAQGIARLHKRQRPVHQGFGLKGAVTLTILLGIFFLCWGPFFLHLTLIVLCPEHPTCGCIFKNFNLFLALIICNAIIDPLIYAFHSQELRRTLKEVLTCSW
T1 sequence (P41968 whole entry): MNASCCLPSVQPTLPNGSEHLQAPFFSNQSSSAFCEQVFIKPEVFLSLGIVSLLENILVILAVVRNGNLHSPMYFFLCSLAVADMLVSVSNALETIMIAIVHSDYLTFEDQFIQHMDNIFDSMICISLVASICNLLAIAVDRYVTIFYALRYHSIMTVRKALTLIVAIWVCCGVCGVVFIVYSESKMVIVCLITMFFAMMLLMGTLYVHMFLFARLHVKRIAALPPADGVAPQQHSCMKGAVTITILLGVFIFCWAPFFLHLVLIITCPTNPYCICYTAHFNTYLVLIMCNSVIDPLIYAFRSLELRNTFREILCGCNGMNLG

insulin: Humulin U ultralente (Eli Lilly), injected subcutaneously
time for blood glucose levels to return to normal after insulin injection ([1]; 1 unit per mouse s.c., aP212 mice and littermates): ≤ 24 h
average rate of weight gain, insulin-injected transgenic mice vs control mice ([1]; 2 units of insulin per day per mouse s.c., 7 days): 1.7 fold

α-melanocyte-stimulating hormone [α-MSH, reference compound]
effect on the cAMP pathway (untransfected 293 cells): no effect

CCOC(=O)C1=C(C)NC(C)=C(C(=O)OC)C1c1cccc([N+](=O)[O-])c1 (stereo not drawn) [nitrendipine, reference compound]
reduction of [Ca2+]i response to 50 nM agouti (L6 skeletal myocytes; 30 μM nitrendipine): ~50%
[Ca2+]i response to 50 nM agouti (L6 skeletal myocytes; with 30 μM nitrendipine): 22 ± 6 nM
effect on FAS activity or triglyceride content (3T3-L1 adipocytes): no effect

B1: human agouti: recombinant human agouti protein (132 amino acids, SEQ ID NO:4) produced in baculovirus-infected T. ni cells (protein)
chain: MDVTRLLLATLLVFLCFFTANSHLPPEEKLRDDRSLRSNSSVNLLDVPSVSIVALNKKSKQIGRKAAEKKRSSKKEASMKKVVRPRTPLSAPCVATRNSCKPPAPACCDPCASCQCRFFRSACSCRVLSLNC
modifications: Homo sapien
[Ca2+]i [2]: stimulate an increase
[Ca2+]i Increase over Baseline [3]: 77 ± 14
[Ca2+]i Increase over Baseline [4]: 57 ± 9
